The text below walks through data of publication PMC10644391, “Targeted Reversible Covalent Modification of a Noncatalytic Lysine of the Krev Interaction Trapped 1 Protein Enables Site-Directed Screening for Protein–Protein Interaction Inhibitors” (ACS Pharmacology & Translational Science, 2023).

Several values for one entry are separate records, joined by “and”; a condition that tells them apart may be missing. Equal values may be shown once. Some results are limits rather than exact numbers.

The test system of data set [1] is KLF2. In words: KLF2 gene expression in HUVECs (RT-qPCR). It is filed as cell-based, Human. Particulars: HUVEC, 4-h incubation, relative to inactive control (2-hydroxy-1-naphthoic acid), 10-50 µM. On the procedure: (§1) Finally, to confirm target engagement in cell-based conditions, selected HNA derivatives (i.e., 2, 3, and 5) were tested in a functional assay that specifically looks at the downstream effects of inhibiting the interaction between HEG1 and KRIT1, using qPCR. […] Here, the ability of compound 2 and HNA derivatives 3 and 5 to upregulate the same transcription factors in HUVEC after 4 h was measured.
(§2) PCR experiments in endothelial cells
(§3) Cell Culture. Human umbilical vein endothelial cells (HUVECs, Lonza) from passages 5 to 7 were grown on fibronectin‐coated 6-well plates (Corning) in complete EGM‐2 media (Lonza). HNA compounds 2, 3 and 5 were used from stocks of 10 mM in DMSO, which were placed on a rotating block at room temperature for 30 min before being diluted for use in cell culture. Compounds were used at the concentrations indicated (10-50µM) in HUVEC medium and added to cell culture wells for 4 hours. Control cells were treated with the same concentration of either DMSO (vehicle) or the non-active compound V for the same duration. Cells were maintained in a humidified incubator at 37°C and 5% CO2.
(§4) RT-qPCR. HUVECs (Lonza) using TRIzol reagent (Thermo Fisher Scientific) and the Quick-RNA MiniPrep Kit (Zymo Research) according to the manufacturer’s instructions. cDNA was transcribed from a total of 1 µg RNA per sample using qScript™ cDNA SuperMix (QuantaBio) according to the manufacturer’s protocol. KAPA SYBR FAST qPCR master mix (Roche) was used on a CFX Connect Real-Time PCR Detection System (BioRad) to determine the relative levels of human gene trascripts. The following primer sets were used: KLF2 (forward) AGACCACGATCCTCCTTGA and (reverse) […]
(§5) […]; KLF4, (forward) […] and (reverse)
(§6) ; and GAPDH (forward) […] and
(§7) (reverse) […] used as internal control. The 2−ΔΔCT method was used to analyze relative changes between vehicle control and test compounds for each data set.

Data set [2] can be described thus: HEK293 cytotoxicity, resazurin cell viability assay. It is filed as cell-based. Particulars: human, HEK293 cells, means ± SD, n = 3. On the procedure:
Maintenance of HEK293 Cells. HEK293 cell lines (American Type Culture Collection (ATCC)) were cultured in Dulbecco's Modified Eagle Medium (DMEM, Invitrogen) supplemented with 10% heat-inactivated fetal bovine serum (FBS, Gibco) and penicillin-streptomycin (1%). Cells were kept at 37 °C and 5% CO2, and were passaged every 72 hours.
Resazurin Cell Viability Assay. The cytotoxicity in HEK293 cells were determined using a resazurin cell viability assay. Test compounds in DMSO were diluted to 100x desired final assay concentration (maximum concentration of 100 µM) in eight-point dose response. 1 µL of test compounds were plated in a 96-well clear bottom tissue culture microplate. 49 µL of cell culture media was added to each well. Cells were diluted to 4 x 10^5 cells/mL, and 50 µL of this cell suspension was seeded to each well for a total of 2 x 10^4 cells/well. The assay plate was kept at 37 °C and 5% CO 2 for either 4 or 48 hours. At the end of the incubation time, 20 µL of 0.5 mM resazurin sodium salt (Alfa Aesar) solution in PBS was added to each well. The assay plates were incubated further at 37 °C for 2 hours. Fluorescence was measured at 531 nm and 595 nm excitation and emission wavelengths, respectively, using a 2104 EnVision® multilabel plate reader. CC50 values were obtained using sigmoidal curved generated with Prism GraphPad (San Diego, CA). SD values are reported as the standard deviation of the CC50 values of 3 biological replicates. All

The subject of data set [3] is KLF2. More on the design: method as in PMID 33977234. Particulars: HUVECs, 24 h of incubation; cited from earlier work.
Data set [4] concerns the target T1, HEG1-KRIT1 PPI (Homo sapiens, UniProt O00522).
T1 construct: a recombinant FERM domain (residues 417–736) of KRIT1; made in house; host or cells: E. coli
In words: HEG1-KRIT1 PPI fluorescence polarization (FP) time-resolved assay. In kind it is biochemical. To be noted: for IC50: fluorescence polarization assay after 4 h of incubation; for IC50 / HEG1-KRIT1 PPI Assay kon / koff / Ki: means ± SD, n = 3; for HEG1-KRIT1 PPI Assay kon / koff: global fit across six or more inhibitor concentrations; for Ki: global fit, unit in Figure 2E, read-out: HEG1-KRIT1 PPI Assay Ki (koff/kon). The method, then: To evaluate the binding kinetics of HNA inhibitors, a fluorescence polarization (FP) time-resolved assay that uses a recombinant FERM domain (residues 417–736) of KRIT1 and a fluorescence-tagged HEG1 cytoplasmic tail (Cy5-HEG1 7-mer peptide) was developed (Supporting Information). Using HNA as a test compound, the FP data, expressed as millipolarization (mP) units, were obtained every 10 min over the course of 4–7 h. […] Thus, for practical purposes, a 4-h incubation time was established as the standard assay time for non-kinetic IC50 evaluations.
Fluorescence Polarization Assay and Optimization
The KRIT1 FERM domain (residues 417-736) was cloned into plasmid and recombinantly expressed in E. coli as previously described,1 while the Cy5-HEG1 7- mer peptide bearing the Cy5 dye as fluorescent probe was prepared by and purchased from GenScript (New Jersey, US). HEPES- buffered saline (HBS) buffer was supplemented (0.01%) with detergent Triton X -100 to minimize protein adsorption to the microplate. The assay was setup in a 96-well plate plated with 80 nM KRIT1, 4 nM Cy5- HEG1 probe, and either non-tagged HEG1 peptide or HNA as inhibitor (in 5% DMSO). To account for background fluorescence that could interfere with the assay, background wells with only test compound and Cy5 -HEG1 probe (no KRIT1) were also plated. The FP data, expressed as millipolarization (mP) units, were obtained […]
course of 4-7 hours (for kinetic characterization) using a Tecan Spark® Multimode Microplate Reader. The background mP (no KRIT1) was subtracted from mP to account for background fluorescence. All assays were done in triplicates.
Several FP assay conditions were optimized. First, the HEG1 probe engagement of KRIT1 was examined and its interaction was determined to be rapid equilibrium, thus any observed time dependance in response when an inhibitor displaces the probe is the result of inhibitor exchange kinetics and not that of the probe. Next, the affinity of KRIT1 for the probe (Kd) was examined by following the change in polarization signal as a function of a matrix of five probe concentrations and four KRIT1 concentrations (Figure S1B ). A global fit of equation 3 to polarization responses of the inhibitor vs KRIT1 concentration […]
even after 7 hours of incubation. For practical purposes, we have chosen 4 hours as our standard incubation time since it appeared that most of the inhibition has been reached at this time point. The kinetic characterization of HNA as a HEG1- KRIT1 inhibitor will be discussed in greater detail in the kinetic section […]
values to those obtained from the flow cytometry assay. Finally, to assess the robustness of the FP assay, […]
a robust assay) representing an excellent assay with clear differences between positive and negative controls.2 Evaluation of HEG1-KRIT1 inhibitors prior to the optimization of the FP assay were done using flow cytometry, while subsequent compounds were evaluated using the FP assay. All subsequent assay plates included HNA as comparison and control.
Figure S1. Optimization of fluorescence polarization (FP) assay.
HEG1-KRIT1 inhibition. (B) Optimization of KRIT1 protein and Cy5 -HEG1 probe concentrations. Dose-response curve of HNA obtained via fluorescence polarization (C) and flow cytometry (D) assays show […]
All assays were tested in technical duplicates or triplicates in at least 2 different

A short description of data set [5]: pKa by potentiometric titration (Sirius T3). In kind it is physicochemical. To be noted: potentiometric titrations, means ± SD of three titrations.
For data set [6], the system named is KLF4. Also noted: method as in PMID 33977234. To be noted: HUVECs, 24 h of incubation; cited from earlier work.
In data set [7] the test system is KLF4. In words: KLF4 gene expression in HUVECs (RT-qPCR). Particulars: HUVEC, 4-h incubation, relative to inactive control (2-hydroxy-1-naphthoic acid), 10-50 µM. In kind it is cell-based, Human. On the procedure: as §1, §2, §3, §4, §5, §6, §7
Data set [8] relates to HEG1-KRIT1 PPI. Particulars: previously reported data; read-out: HEG1-KRIT1 IC50, flow cytometry assay; cited from earlier work.

T1 sequence (O00522 417-736): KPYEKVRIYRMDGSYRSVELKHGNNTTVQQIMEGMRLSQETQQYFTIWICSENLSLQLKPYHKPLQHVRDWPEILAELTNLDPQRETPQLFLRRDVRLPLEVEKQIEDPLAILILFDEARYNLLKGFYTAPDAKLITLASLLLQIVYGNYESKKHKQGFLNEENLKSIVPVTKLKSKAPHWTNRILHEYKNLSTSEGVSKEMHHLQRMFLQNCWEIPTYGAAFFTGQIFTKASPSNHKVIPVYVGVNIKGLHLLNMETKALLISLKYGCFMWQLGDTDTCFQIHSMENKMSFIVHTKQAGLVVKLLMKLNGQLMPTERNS

For `COc1ccc2c(C=O)c(O)ccc2c1` [Compound 2, 2-hydroxy-6-methoxy-1-naphthaldehyde], the “KLF2 mRNA expression” value with KLF2 [1] is “increased KLF2 and KLF4 expression without reaching statistical significance”. Besides, in data set [2], the CC50 at 48 h is more than 100 µM. Moreover, the KLF2 expression result in the data set with KLF2 [3] is “upregulation”. At HEG1-KRIT1 PPI [4], 3.96 ± 0.84 µM corresponded to half-maximal inhibition (IC50); the “HEG1-KRIT1 PPI Assay kon” value was 0.0504 µM⁻¹ h⁻¹ and 0.0504 ± 0.003 µM⁻¹ h⁻¹; the koff is 1.54e-05 s⁻¹; the Ki amounted to 1100 ± 320 nM. The molecule also registered a pKa in data set [5] of 7.42 ± 0.03. Besides, the KLF4 expression result in the data set with KLF4 [6] is given as “upregulation”. In addition, the “KLF4 mRNA expression” value in the data set on KLF4 [7] was “increased KLF2 and KLF4 expression without reaching statistical significance”.

In data set [2], `O=Cc1c(O)ccc2ccccc12` [Compound 1, 2-hydroxy-1-naphthaldehyde] yielded a CC50 at 48 h of approximately 100 µM. Further, the KLF2 expression result in the data set with KLF2 [3] was “upregulation”. Moreover, the “difference in affinity, KRIT1 (FP assay) vs N-α-acetyl lysine” value at HEG1-KRIT1 PPI [4] (Ki for KRIT1 vs Kd for N-α-acetyl lysine) is > 70,000 fold. Further, at HEG1-KRIT1 PPI [4], it took 8.14 ± 0.82 µM to reach half-maximal inhibition (IC50), the “HEG1-KRIT1 PPI Assay kon” value came out at 0.0518 ± 0.0021 µM⁻¹ h⁻¹, the koff is 3.31e-05 s⁻¹ and the Ki stood at 2290 ± 440 nM. The “inhibition of HEG1-KRIT1 PPI upon co-incubation with free lysine” value at HEG1-KRIT1 PPI [4] (free lysine 50 μM in the assay buffer) is “did not meaningfully change”. The “HEG1-KRIT1 PPI Assay kon” value on HEG1-KRIT1 PPI [4] (listed as HNA) turned out to be 0.0518 µM⁻¹ h⁻¹. In the data set with HEG1-KRIT1 PPI [8], the IC50 was 3.09 µM. In data set [5], this molecule returned a pKa of 7.34 ± 0.02. Further, the KLF4 expression entry with KLF4 [6] is reported as “upregulation”.
